Measured values: US6426202B1, “Nystatin-resistant Aspergillus terreus CLS 247-13, KCTC 0673BP for preparing triol heptanoic acid employing the same” (priority 1999, dated 2002)

What was measured:
[1] = system: parent strain Aspergillus terreus CLS216-7; test: Minimal inhibitory concentration of nystatin, parent strain; type: cell-based; settings: parent strain CLS216-7
Experimental: (§1) After incubating the culture in a liquid minimal medium containing nystatin for 1.5-3 hours, it was washed with saline solution, concentrated, diluted properly, and spreaded onto solid minimal medium containing 150 μg/ml of nystatin, and then the resultant was incubated at 28° C. for 8-15 days to isolate viable mutant strains. The isolated mutant strains resistant to nystatin, showing various morphological characteristics, were subcultured on solid minimal media containing increasing concentrations of nystatin (i.e., 150, 160, 170, 180, 190 and 200 […]) to select mutants showing increased resistance. The nystatin-resistant mutants thus obtained were incubated in an agar slant medium for 15-20 days. The spores formed were recovered in a 20% glycerin solution and subjected to liquid culture as disclosed in Example 2 below. As a result, the productivity of mevinolinic acid decreased and a variety of its analogues appeared. The mutant showing a high productivity of triol heptanoic acid of at least 11.5 g/L was selected and named ‘Aspergillus terreus CLS247-13’. Aspergillus terreus CLS247-13 maintained morphological characteristics, resistance to nystatin and high productivity of triol heptanoic acid constantly on a solid minimal medium containing 2 g/L of yeast extract for 10 generations. […]

[2] = system: mutant strain Aspergillus terreus CLS247-13; test: Minimal inhibitory concentration of nystatin, mutant strain; type: cell-based
Experimental: as §1

C[C@@H]1[C@H](O)[C@@H](C)/C=C/C=C/CC/C=C/C=C/C=C/C=C/C(O[C@H]2O[C@H](C)[C@@H](O)[C@H](N)[C@@H]2O)CC2O[C@](O)(CC(O)C(O)CCC(O)CC(O)CC(O)CC(=O)O[C@H]1C)CC(O)C2C(=O)O (stereo partly drawn) [nystatin]
Minimal inhibitory conc. of nystatin [1]: ≦25 μg/ml
Minimal inhibitory conc. of nystatin ([2]; mutant strain CLS247-13): ≦200 μg/ml
increase of minimal inhibitory concentration of nystatin (resistance to nystatin) compared with parent strain ([2]; mutant strain CLS247-13 compared with parent strain CLS216-7): 8 fold
